Source: US20260200903A1, “PHARMACEUTICAL COMPOSITION FOR AMELIORATING MALIGNANT DISEASES” (KINKI UNIVERSITY, priority 2020, published 2026)

Tests used:
Format in all cases: cell-based
[1] = system: L363 cells (myeloma cell line); test: Cell death inducing effect on L363 cells, trypan blue staining
Method: (§1) L363 cells (myeloma cell line) were cultured under 5% CO2 at 37° C. The culture medium used RPMI-1640 medium with 100 μg/mL penicillin, 100 U/mL streptomycin and fetal bovine serum. L363 cells were seeded into 96-well plates and incubated with each concentration of the compounds was added, and cell viability was determined by the trypan blue staining.
(§2) For controls, only 0.5% DMSO (diluted in PBS) used to dissolve the compounds was added. For each concentration, each bar line is indicated by an arrow with the sign “n, a, 1, 2, 3, 4, 5, 6, 7, 8, 9, 10, 11, 12” from left to right. The “1, 3, 5, 7, 9, 11” are omitted from the graph, but the sign “1” shall be indicated by an arrow between the signs “a” and “2”, the sign “3” between the signs “2” and “4”, and other odd numbers shall likewise be indicated by arrows between even numbers before and after.
(§3) The sign “n” is the norathyriol (formula (n)) administration group, the sign “a” is the mangiferin 8a (formula (a)) administration group, the sign “1” is the yk-7 (formula (1)) administration group, the sign “2” is the yk-8-1 (formula (2)) administration group, the sign “3” is the yk-8-3 (formula (3)) administration group, the sign “4” is the M7 (formula (4)) administration group, the sign “5” is the M9 (formula (5)) administration group, the sign “6” is the M11 (formula (6)) administration group, the sign “7” is the M12 (formula (7)) administration group, the sign “8” is the M14 (formula (8)) administration group, the sign “9” is the M15 (formula (9)) administration group, the sign “10” is the M16 (formula (10)) administration group, the sign “11” is the M18 (formula (11)) administration group, the sign “12” is the M19 (formula (12)) administration group, respectively. The IC50 values for each compound is also listed in the upper right corner of the figure.

[2] = system: NF-κB p52 nuclear; test: Immunoblotting of NF-κB p52 nuclear in KMS-28BM cells; details: nuclear fraction, 72 h, same concentrations (0.005-100 μM)
Method: (§4) Immunoblotting was performed on KMS-28BM cells to investigate the inhibitory effect of each compound administration on NIK inhibition and the activation of IKK, NF-κB p52, and NF-κB p65, which are downstream signals of NIK. As a result, inhibition of NIK activation, inhibition of IKK activity, and inhibition of nuclear translocation of NF-κB p52 and NF-κB p65 were observed (FIG. 15 and FIG. 16).
(§5) As a control, compounds untreated KMS-28BM cells were seeded in 150 cm^2 flasks and incubated for 72 h at 37° C. and 5% CO2. KMS-28BM cells were seeded into 150 cm^2 flasks and pre-cultured for 24 h. After incubation, KMS-28BM cells were treated with […], 1 μM norathyriol, 0.5 μM M7 (formula (4)), 1 μM M8 (mangiferin 8a: listed in duplicate), 0.2 μM M9 (formula (5)), 5 μM yk-7 (formula (1)), 0.5 μM yk-8-3 (formula (3)) and 100 μM yk-8-1 (formula (2)) at final concentrations, and incubated for 72 h at 37° C. and 5% CO2. In addition, KMS-28BM cells were also treated with 0.5 μM M19 (formula (12)), 0.5 μM M18 (formula (11)), 0.005 μM M16 (formula (10)), […] (formula (9)), 0.005 μM M14 (formula (8)), 0.05 μM M12 (formula (7)) and […] (formula (6)) at the final concentrations, and incubated for 72 h at 37° C. and 5% CO2. Proteins were extracted from these cell suspensions with cell lysate and used as samples.
(§6) The nucleus and cytoplasmic substrate were separated from the cells using the ProteoExtract (registered trademark) Subcellular Proteome Extraction Kit from Merck Ltd. to extract the cytoplasmic and nuclear fractions.
(§7) After SDS-PAGE, each sample was transferred to a PVDF membrane and examined using anti-phospho-NIK, anti-NIK, anti-phospho-IKK, anti-IKK, anti-P-actin, anti-NF-κB p52 and anti-NF-κB p65 antibody, and anti-Lamin antibody.
(§8) The antibody species is indicated in the vertical direction. Specifically, for anti-phospho-NIK antibody, “Phospho-NIK” was used, for anti-NIK antibody, “NIK” was used, for anti-phospho-IKK antibody, “Phospho-IKK” was used, for anti-IKK antibody, “IKK” was used, for anti-p-actin antibody, “p-actin” was used, for anti-NF-κB p52 antibody, “NF-κB p52 nuclear” was used, for anti-NF-κB p65 antibody, “NF-κB p65 nuclear” was used, and for anti-Lamin antibody, “Lamin” was used.

[3] = system: RPMI8226 cells (myeloma cell line); test: Cell death inducing effect on RPMI8226 cells, trypan blue staining
Method: as §1, with “RPMI8226” for “L363”
as §2, §3

[4] = system: phospho-IKK; test: Immunoblotting of phospho-IKK in KMS-28BM cells; details: 72 h, vs control, same concentrations as for phospho-NIK (0.005-100 μM)
Method: as §4, §5, §6, §7, §8

[5] = system: CD20; test: CD20 expression in KMS-28BM cells, flow cytometry; details: 10 days, concentration lower than the IC50 (0.005-50 μM), compared to the positive control
Method: As a control, compounds untreated KMS-28BM cells were seeded in 75 cm^2 flasks and incubated for 10 days at 37° C. and 5% CO2. KMS-28BM cells were seeded into 75 cm^2 flasks and pre-cultured for 4 h. After incubation, KMS-28BM cells were treated with […], 0.05 μM M9, 0.1 μM yk-7, 0.1 μM yk-8-3, 50 μM yk-8-1, 0.5 μM M11, […], 0.005 μM M14, 0.005 μM M15, 0.005 μM M16, 0.5 μM M18, and 0.5 μM M19 at final concentrations, and incubated for 10 days at 37° C. and 5% CO2. This added amount is a concentration lower than the IC50 of the above compounds for KMS-28BM cells. After 10 days of incubation, cells were stained with anti-CD20 antibody, a B cell marker, and CD20 expression was measured using BD LSRFortessa. CCRF-SB cells were used as CD20-positive controls.
Results are shown in FIG. 21, FIG. 22, FIG. 23, and FIG. 24. The horizontal axis represents the expression level of CD20 and the vertical axis represents the number of cells.

[6] = Homo sapiens, L-363, cell viability
[7] = Homo sapiens, RPMI-8226, cell viability

| Compound | IC50 ([1]; cell viability) | NF-κB p52 nuclear [2] | IC50 ([3]; cell viability) | phospho-IKK band density (anti-phospho-IKK antibody) [4] | CD20 expression level [5] | IC50 [1, 6] | IC50 [3, 7] |
| --- | --- | --- | --- | --- | --- | --- | --- |
| CCCC(=O)OC[C@H]1O[C@@H](c2c(OC(=O)CCC)cc3oc4cc(OC(=O)CCC)c(OC(=O)CCC)cc4c(=O)c3c2OC(=O)CCC)[C@H](OC(=O)CCC)[C@@H](OC(=O)CCC)[C@@H]1OC(=O)CCC [Compound M11, 1,3,2′,3′,4′,6,6′,7-octa-O-butyrylmangiferin] | 970 nM | decreased | 3210 nM | decrease in band density | significantly increased | – | – |
| CCCCC(=O)OC[C@H]1O[C@@H](c2c(O)cc3oc4cc(O)c(O)cc4c(=O)c3c2OC(=O)CCCC)[C@H](OC(=O)CCCC)[C@@H](OC(=O)CCCC)[C@@H]1OC(=O)CCCC [yk-8-3, 1,2′,3′,4′,6-penta-O-valerylmangiferin] | – | decreased | – | decrease in band density | significantly increased | 1400 nM | 2270 nM |
| C=CCOc1cc(O)cc2oc3cc(O)c(O)cc3c(=O)c12 [Compound M19, 1-allyloxy-3,6,7-trihydroxy-9H-xanthen-9-one] | – | decreased | – | decrease in band density | significantly increased | 7200 nM | 9540 nM |
| O=c1c2cc(O)c(O)cc2oc2cc(O)cc(O)c12 [norathyriol, reference compound] | – | decreased | – | decrease in band density | – | 5800 nM | 8870 nM |
| O=c1c2cc(O)c(O)cc2oc2cc(O)cc(OCCO)c12 [Compound M18, 3,6,7-trihydroxy-1-(2-hydroxyethoxy)-9H-xanthen-9-one] | – | decreased | – | decrease in band density | significantly increased | 4700 nM | 6870 nM |
| CCC(=O)OC[C@H]1O[C@@H](c2c(OC(=O)CC)cc3oc4cc(OC(=O)CC)c(OC(=O)CC)cc4c(=O)c3c2OC(=O)CC)[C@H](OC(=O)CC)[C@@H](OC(=O)CC)[C@@H]1OC(=O)CC [Compound M7, 1,3,2′,3′,4′,6,6′,7-octa-O-propionylmangiferin] | – | decreased | – | decrease in band density | significantly increased | 5100 nM | 6420 nM |
| CCCCO[C@@H]1[C@@H](OCCCC)[C@H](c2c(O)cc3oc4cc(O)c(O)cc4c(=O)c3c2O)O[C@H](COC(=O)CCC)[C@H]1OC(=O)CCC [Compound M16, 2′,3′-di-O-butyl-4′,6′-di-O-butyrylmangiferin] | – | decreased | – | decrease in band density | significantly increased | 21 nM | 91 nM |
| 1,2′,3′,4′,6-penta-O-propionylmangiferin [Compound 8a, reference compound] | 5600 nM | decreased | 7090 nM | decrease in band density | – | – | – |
| CCC(=O)OC[C@H]1O[C@@H](c2c(O)cc3oc4cc(O)c(O)cc4c(=O)c3c2O)[C@H](OC(=O)CC)[C@@H](OC(=O)CC)[C@@H]1OC(=O)CC [Compound M9, 2′,3′,4′,6′-tetra-O-propionylmangiferin] | – | decreased | – | decrease in band density | significantly increased | 620 nM | 696 nM |
| CCCC(=O)OC[C@H]1O[C@@H](c2c(O)cc3oc4cc(O)c(O)cc4c(=O)c3c2O)[C@H](OC(=O)CCC)[C@@H](OC(=O)CCC)[C@@H]1OC(=O)CCC [Compound M14, 2′,3′,4′,6′-tetra-O-butyrylmangiferin] | – | decreased | – | decrease in band density | significantly increased | 29 nM | 121 nM |
| CCCCC(=O)OC[C@H]1O[C@@H](c2c(O)cc3oc4cc(O)c(O)cc4c(=O)c3c2O)[C@H](OC(=O)CCCC)[C@@H](OC(=O)CCCC)[C@@H]1OC(=O)CCCC [yk-7, 2′,3′,4′,6′-tetra-O-valerylmangiferin] | – | decreased | – | decrease in band density | significantly increased | 5700 nM | 2460 nM |
| CC(C)(C)C(=O)OC[C@H]1O[C@@H](c2c(O)cc3oc4cc(O)c(O)cc4c(=O)c3c2O)[C@H](OC(=O)C(C)(C)C)[C@@H](OC(=O)C(C)(C)C)[C@@H]1OC(=O)C(C)(C)C [Compound M15, 2′,3′,4′,6′-tetra-O-pivaloylmangiferin] | – | decreased | – | decrease in band density | significantly increased | 91 nM | 183 nM |
| CCCC(=O)OC[C@H]1O[C@@H](c2c(O)cc3oc4cc(O)c(O)cc4c(=O)c3c2OC(=O)CCC)[C@H](OC(=O)CCC)[C@@H](OC(=O)CCC)[C@@H]1OC(=O)CCC [Compound M12, 1,2′,3′,4′,6-penta-O-butyrylmangiferin] | – | decreased | – | decrease in band density | significantly increased | 89 nM | 291 nM |
